Reference: ChEMBL document CHEMBL2440076, “New triarylpyrazoles as broad-spectrum anticancer agents: design, synthesis, and biological evaluation” (Eur J Med Chem, 2013)

Legend:
Format in all cases: functional
HOP-92 = assay: Growth inhibition of human HOP92 cells assessed as cell growth at 5X10'-5 M after 48 hrs by sulforhodamine B assay; conditions: HOP-92, 48 h, read-out: Activity
[1] = Growth inhibition of human HCC2998 cells assessed as cell growth at 5X10'-9 M after 48 hrs by sulforhodamine B assay; conditions: HCC 2998, 48 h, read-out: Activity
CCRF-CEM [2] = assay: Growth inhibition of human CCRF-CEM cells assessed as cell growth at 5X10'-7 M after 48 hrs by sulforhodamine B assay; conditions: read-out: Activity
OVCAR-8 = assay: Growth inhibition of human OVCAR8 cells assessed as cell growth at 5X10'-6 M after 48 hrs by sulforhodamine B assay; conditions: OVCAR-8, 48 h, read-out: Activity
TK-10 = assay: Growth inhibition of human TK10 cells assessed as cell growth at 5X10'-7 M after 48 hrs by sulforhodamine B assay; conditions: TK-10, 48 h, read-out: Activity
MDA-MB-468 = assay: Growth inhibition of human MDA-MB-468 cells assessed as cell growth at 5X10'-8 M after 48 hrs by sulforhodamine B assay; conditions: MDA-MB-468, 48 h, read-out: Activity
MDA-MB-435 = assay: Growth inhibition of human MDA-MB-435 cells assessed as cell growth at 5X10'-8 M after 48 hrs by sulforhodamine B assay; conditions: MDA-MB-435, 48 h, read-out: Activity
K562 = assay: Growth inhibition of human K562 cells assessed as cell growth at 5X10'-5 M after 48 hrs by sulforhodamine B assay; conditions: K562, 48 h, read-out: Activity
IGROV-1 = assay: Growth inhibition of human IGROV1 cells assessed as cell growth at 5X10'-5 M after 48 hrs by sulforhodamine B assay; conditions: IGROV-1, 48 h, read-out: Activity
SF-295 = assay: Growth inhibition of human SF295 cells assessed as cell growth at 5X10'-8 M after 48 hrs by sulforhodamine B assay; conditions: SF-295, 48 h, read-out: Activity
SNB-19 = assay: Growth inhibition of human SNB19 cells assessed as cell growth at 5X10'-5 M after 48 hrs by sulforhodamine B assay; conditions: SNB-19, 48 h, read-out: Activity
CAKI-1 [3] = assay: Growth inhibition of human CAKI-1 cells assessed as cell growth at 5X10'-5 M after 48 hrs by sulforhodamine B assay; conditions: CAKI-1, 48 h, read-out: Activity
COLO 205 [4] = assay: Growth inhibition of human COLO205 cells assessed as cell growth at 5X10'-7 M after 48 hrs by sulforhodamine B assay; conditions: COLO 205, 48 h, read-out: Activity
SR = assay: Growth inhibition of human SR cells assessed as cell growth at 5X10'-7 M after 48 hrs by sulforhodamine B assay; conditions: read-out: Activity
M14 = assay: Growth inhibition of human M14 cells assessed as cell growth at 5X10'-9 M after 48 hrs by sulforhodamine B assay; conditions: M14, 48 h, read-out: Activity
[5] = Growth inhibition of human HCC2998 cells assessed as cell growth at 5X10'-5 M after 48 hrs by sulforhodamine B assay; conditions: HCC 2998, 48 h, read-out: Activity
COLO 205 [6] = assay: Growth inhibition of human COLO205 cells assessed as cell growth at 5X10'-8 M after 48 hrs by sulforhodamine B assay; conditions: COLO 205, 48 h, read-out: Activity
[7] = Growth inhibition of human HCC2998 cells assessed as cell growth at 5X10'-7 M after 48 hrs by sulforhodamine B assay; conditions: HCC 2998, 48 h, read-out: Activity
OVCAR-5 = assay: Growth inhibition of human OVCAR5 cells assessed as cell growth at 5X10'-5 M after 48 hrs by sulforhodamine B assay; conditions: OVCAR-5, 48 h, read-out: Activity
PC-3 = assay: Growth inhibition of human PC3 cells assessed as cell growth at 5X10'-6 M after 48 hrs by sulforhodamine B assay; conditions: PC-3, 48 h, read-out: Activity
RXF 393 = assay: Growth inhibition of human RXF393 cells assessed as cell growth at 5X10'-5 M after 48 hrs by sulforhodamine B assay; conditions: RXF 393, 48 h, read-out: Activity
SK-MEL-5 = assay: Growth inhibition of human SK-MEL-5 cells assessed as cell growth at 5X10'-8 M after 48 hrs by sulforhodamine B assay; conditions: SK-MEL-5, 48 h, read-out: Activity
RPMI-8226 = assay: Growth inhibition of human RPMI8226 cells assessed as cell growth at 5X10'-9 M after 48 hrs by sulforhodamine B assay; conditions: RPMI-8226, 48 h, read-out: Activity
BT-549 = assay: Growth inhibition of human BT549 cells assessed as cell growth at 5X10'-6 M after 48 hrs by sulforhodamine B assay; conditions: BT-549, 48 h, read-out: Activity
UACC-257 = assay: Growth inhibition of human UACC257 cells assessed as cell growth at 5X10'-6 M after 48 hrs by sulforhodamine B assay; conditions: UACC-257, 48 h, read-out: Activity
CCRF-CEM [8] = assay: Growth inhibition of human CCRF-CEM cells assessed as cell growth at 5X10'-5 M after 48 hrs by sulforhodamine B assay; conditions: read-out: Activity
CAKI-1 [9] = assay: Growth inhibition of human CAKI-1 cells assessed as cell growth at 5X10'-9 M after 48 hrs by sulforhodamine B assay; conditions: CAKI-1, 48 h, read-out: Activity
SF-268 [10] = assay: Growth inhibition of human SF268 cells assessed as cell growth at 5X10'-7 M after 48 hrs by sulforhodamine B assay; conditions: SF-268, 48 h, read-out: Activity
A498 = assay: Growth inhibition of human A498 cells assessed as cell growth at 5X10'-8 M after 48 hrs by sulforhodamine B assay; conditions: A498, 48 h, read-out: Activity
NCI-H226 = assay: Growth inhibition of human NCI-H226 cells assessed as cell growth at 5X10'-8 M after 48 hrs by sulforhodamine B assay; conditions: NCI-H226, 48 h, read-out: Activity
SNB-75 = assay: Growth inhibition of human SNB75 cells assessed as cell growth at 5X10'-8 M after 48 hrs by sulforhodamine B assay; conditions: SNB-75, 48 h, read-out: Activity
[11] = Growth inhibition of human Hs 578T cells assessed as cell growth at 5X10'-7 M after 48 hrs by sulforhodamine B assay; conditions: read-out: Activity
SF-268 [12] = assay: Growth inhibition of human SF268 cells assessed as cell growth at 5X10'-6 M after 48 hrs by sulforhodamine B assay; conditions: SF-268, 48 h, read-out: Activity
SN12C = assay: Growth inhibition of human SN12C cells assessed as cell growth at 5X10'-6 M after 48 hrs by sulforhodamine B assay; conditions: read-out: Activity
SF-539 = assay: Growth inhibition of human SF539 cells assessed as cell growth at 5X10'-9 M after 48 hrs by sulforhodamine B assay; conditions: SF-539, 48 h, read-out: Activity
OVCAR-4 = assay: Growth inhibition of human OVCAR4 cells assessed as cell growth at 5X10'-7 M after 48 hrs by sulforhodamine B assay; conditions: OVCAR-4, 48 h, read-out: Activity

## COc1cc(-c2nn(-c3cccc(NC(=O)Nc4ccc(Cl)c(Cl)c4)c3)cc2-c2ccncc2)ccc1Cl
HOP-92
  growth at 50 µM: -39%
[1]
  growth at 0.005 µM: 101%
CCRF-CEM [2]
  growth at 0.5 µM: 74%
OVCAR-8
  growth at 5 µM: -12%
TK-10
  growth at 0.5 µM: 83%
MDA-MB-468
  growth at 0.05 µM: 84%
MDA-MB-435
  growth at 0.05 µM: 97%
K562
  growth at 50 µM: 3%
IGROV-1
  growth at 50 µM: -26%
SF-295
  growth at 0.05 µM: 88%
SNB-19
  growth at 50 µM: 15%
CAKI-1 [3]
  growth at 50 µM: -13%
COLO 205 [4]
  growth at 0.5 µM: 102%
SR
  growth at 0.5 µM: 78%
M14
  growth at 0.005 µM: 100%
[5]
  growth at 50 µM: -19%
COLO 205 [6]
  growth at 0.05 µM: 112%
[7]
  growth at 0.5 µM: 97%
OVCAR-5
  growth at 50 µM: 15%
PC-3
  growth at 5 µM: -17%
RXF 393
  growth at 50 µM: -43%
SK-MEL-5
  growth at 0.05 µM: 92%
RPMI-8226
  growth at 0.005 µM: 96%
BT-549
  growth at 5 µM: 8%
UACC-257
  growth at 5 µM: -22%
CCRF-CEM [8]
  growth at 50 µM: 2%
CAKI-1 [9]
  growth at 0.005 µM: 97%
SF-268 [10]
  growth at 0.5 µM: 89%
A498
  growth at 0.05 µM: 89%
NCI-H226
  growth at 0.05 µM: 92%
SNB-75
  growth at 0.05 µM: 83%
[11]
  growth at 0.5 µM: 83%
SF-268 [12]
  growth at 5 µM: 8%
SN12C
  growth at 5 µM: 14%
SF-539
  growth at 0.005 µM: 94%
OVCAR-4
  growth at 0.5 µM: 81%
